Where two headings read alike, the source gives them in different places.
Legend:
human CB1 receptor [1] = target: T1, human CB1 receptor (Homo sapiens, UniProt P21554); test: [35S] GTPγS binding on membranes of CHO cells expressing the human CB1 receptor (agonism); type: biochemical; design: expressed in transfected cells; membrane preparation
Description: Membrane preparation: CHO cells expressing the human CB1 receptor were grown to 80% confluence in Ham's F-12 Nutrient Medium (Invitrogen) containing 10% fetal bovine serum (Invitrogen), 1% pen/strep (Invitogen), 1% Nonessential amino acids (Invitrogen) and 500 μg/ml G418 (Invitrogen). Cells were released from flasks using Cell Dissociation Buffer (Invitrogen). Cells were pelleted by centrifugation at 500×G for 5 minutes. Membranes were prepared by resuspending cells in ice cold Assay Buffer (25 mM Tris pH 7.4, 5 mM EDTA, 5 mM EGTA, Complete Protease Inhibitor (Roche)). Cells were lysed with 12 strokes of a dounce homogenizer. Unlysed cells were pelleted by centrifugation at 500×G for 5 minutes. Membranes were pelleted by centrifugation at 25,000×G for 30 minutes. Membranes were resuspended in TEE, dounced 12 strokes, and pelleted a second time at 25,000×G for 30 minutes. Membrane pellet was resuspended in 50 mM Tris pH 7.4, 100 mM NaCl, 3 mM MgCl2, 0.2 mM EGTA, Complete Protease Inhibitor (Roche). Protein concentration was determined using the Micro-BCA Protein Assay Kit (Pierce) using BSA as a standard. Membranes were frozen and stored at −80 degrees Celsius until use.
GTPγS Binding: 40 μl of test compound was incubated with 20 μl of [^35S] GTPγS (Perkin Elmer) (1250 Ci/millimole) and 140 μl of membrane homogenate (5 μg/well) in polypropylene 96-well plates (Corning). Final reaction conditions were 50 mM Tris pH 7.4, 100 mM NaCl, 3 mM MgCl2, 0.2 mM EGTA, 0.04% BSA. After incubation at 37 degrees Celsius for 45 minutes reactions were harvested by vacuum filtration through Unifilter GF/B-96 filters (Perkin Elmer) using a FilterMate Plate Harvester (Perkin Elmer). Filters were rinsed 4 times with ice cold 50 mM Tris pH 7.4, 3 mM MgCl2, 0.2 mM EGTA and dried at 50 degrees Celsius for at least 30 minutes. 40 μl of Microscint-20 (Perkin Elmer) was added per well, and plates were counted using a Top-Count Microplate Scintillation Counter (Perkin Elmer). Binding data were analyzed and EC50 values were calculated using Graph Pad Prism 4.0 Software.

human CB1 receptor [2] = target: T1, human CB1 receptor; test: Human CB1 receptor binding, [3H] CP-55,940 displacement on HEK cell membranes; design: expressed in transfected cells; host or cells: HEK cells, doxycycline-induced; membrane preparation
In short: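 Membranes from doxycycline-induced HEK cells expressing human CB1 incubated 60 min at room temperature with [3H] CP-55,940 (final […]) in 50 mM Tris pH 7.4, 100 mM NaCl, 3 mM MgCl2, 0.2 mM EGTA, 0.04% BSA. Nonspecific binding defined with 50 μM WIN-55,212-2; filtration and scintillation counting gave EC50 and Ki.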

[3] = GTPγS EC50, human CB1, CHO cell membranes
[4] = human CB1, CHO cell membranes, read-out: GTPγS EC50

T1 sequence (P21554 whole entry): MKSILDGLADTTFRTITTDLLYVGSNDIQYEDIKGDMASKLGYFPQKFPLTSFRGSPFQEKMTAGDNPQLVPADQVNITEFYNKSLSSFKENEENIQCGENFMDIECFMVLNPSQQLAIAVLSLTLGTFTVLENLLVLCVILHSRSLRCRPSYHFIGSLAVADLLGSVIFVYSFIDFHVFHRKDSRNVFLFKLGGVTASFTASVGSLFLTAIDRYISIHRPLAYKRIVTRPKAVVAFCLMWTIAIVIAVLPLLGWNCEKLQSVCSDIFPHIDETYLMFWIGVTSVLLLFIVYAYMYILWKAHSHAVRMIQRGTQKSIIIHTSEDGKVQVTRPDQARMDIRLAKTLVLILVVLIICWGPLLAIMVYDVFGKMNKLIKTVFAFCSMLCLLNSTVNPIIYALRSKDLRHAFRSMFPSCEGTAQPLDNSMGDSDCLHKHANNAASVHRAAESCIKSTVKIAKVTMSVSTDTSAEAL

Row | SMILES | EC50 (human CB1 receptor [1]; [3]) [µM] | Ki (human CB1 receptor [2]; CB1 Ki) [µM] | EC50 (human CB1 receptor [1]; [4]) [µM] | Ki (human CB1 receptor [2]; read-out: CB1 Ki) [µM]
1 | CC(C)(C)C(NC(=O)c1nn(Cc2ccc(C#N)cc2F)c2ccccc12)C(=O)NCC(O)CO (stereo not drawn) [Example 89] | 0.539 | 0.0634 |  | 
2 | CC(C)(C)C(NC(=O)c1nn(Cc2ccc(C#N)cc2F)c2ccccc12)C(=O)NCC(O)CO (stereo not drawn) [Example 90] | 0.385 | 0.0274 |  | 
3 | CC(C)(C)C(NC(=O)c1nn(Cc2ccc(C#N)cc2F)c2ccccc12)C(=O)NCCO (stereo not drawn) [Example 91] | 0.0538 | 0.00187 |  | 
4 | CC(C)(C)C(NC(=O)c1nn(Cc2ccc(C#N)cc2F)c2ccccc12)C(=O)NCC(N)=O (stereo not drawn) [Example 92] | 0.265 | 0.0141 |  | 
5 | CC(C)(C)C(NC(=O)c1nn(Cc2ccc(C#N)cc2F)c2ccccc12)C(=O)NCCCO (stereo not drawn) [Example 93] | 0.0418 | 0.0143 |  | 
6 | CC(C)(C)C(NC(=O)c1nn(Cc2ccc(C#N)cc2F)c2ccccc12)C(=O)NCCNC(N)=O (stereo not drawn) [Example 94] | 0.077 | 0.0275 |  | 
7 | CC(C)(C)C(NC(=O)c1nn(Cc2ccc(C#N)cc2F)c2ccccc12)c1nnc(N)o1 (stereo not drawn) [Example 95] |  |  | 0.0137 | 0.00222
8 | CC(C)(C)C(NC(=O)c1nn(Cc2ccccc2)c2ccccc12)C(=O)NCCNS(=O)(=O)C1CC1 (stereo not drawn) [Example 96] |  |  | 0.0169 | 0.00118
9 | CC(C)(C)[C@H](NC(=O)c1nn(Cc2ccc(C#N)cc2)c2ccccc12)C(=O)NCCNS(=O)(=O)C1CC1 [Example 97] |  |  | 0.0167 | 0.00104
10 | CC(C)(C)[C@H](NC(=O)c1nn(Cc2ccc(C#N)cc2F)c2ccccc12)C(=O)NCCNS(=O)(=O)C1CC1 [Example 98] |  |  | 0.00863 | 0.00098
11 | CC(C)(C)[C@H](NC(=O)c1nn(Cc2ccc(F)cc2)c2ccccc12)C(=O)NCCNS(=O)(=O)C1CC1 [Example 99] |  |  | 0.0005 | 0.00018
12 | CC(C)(C)[C@H](NC(=O)c1nn(Cc2ccc(F)cc2)c2ccccc12)C(=O)NCCNC(=O)C1CC1 [Example 103] |  |  | 0.00908 | 0.00268
13 | CC(C)(C)[C@H](NC(=O)c1nn(Cc2ccc(C#N)cc2)c2c(F)cccc12)C(=O)NC1CC1 [Example 108] | 0.027 | 0.00378 |  | 
14 | CC(C)(C)[C@H](NC(=O)c1nn(Cc2ccc(C#N)cc2)c2c(F)cccc12)C(=O)NCCCO [Example 109] | 0.11 | 0.00814 |  | 
15 | CC(C)(C)[C@H](NC(=O)c1nn(Cc2ccc(C#N)cc2)c2c(F)cccc12)C(=O)NCC(N)=O [Example 110] | 0.237 | 0.0289 |  | 
16 | CC(C)(C)[C@H](NC(=O)c1nn(Cc2ccc(C#N)cc2)c2c(F)cccc12)C(N)=O [Example 111] | 0.00973 | 0.00072 |  | 
17 | CC(C)(C)[C@H](NC(=O)c1nn(Cc2ccc(C#N)cc2)c2c(F)cccc12)c1nnc(N)o1 [Example 112] |  |  | 0.0318 | 0.00051
18 | CC(C)(C)[C@H](NC(=O)c1nn(Cc2ccc(C#N)cc2)c2c(F)cccc12)C(=O)NC[C@H](O)CO [Example 113] | 0.188 | 0.00779 |  | 
19 | CC(C)(C)[C@H](NC(=O)c1nn(Cc2ccc(C#N)cc2)c2c(F)cccc12)C(=O)NCCNS(=O)(=O)C1CC1 [Example 115] |  |  | 0.00872 | 0.00109
20 | CC(C)(C)[C@H](NC(=O)c1nn(Cc2ccc(C#N)cc2)c2c(F)cccc12)C(=O)NCc1nnc(C(N)=O)o1 [Example 116] |  |  | 0.0496 | 0.0135
21 | CC(C)(C)[C@H](NC(=O)c1nn(Cc2ccc(C#N)cc2)c2c(F)cccc12)C(=O)NC(CO)CO [Example 117] | 0.168 | 0.00954 |  | 

Row | SMILES | EC50 (human CB1 receptor [1]; [3]) [µM] | Ki (human CB1 receptor [2]; CB1 Ki) [µM] | EC50 (human CB1 receptor [1]; [4]) [µM] | Ki (human CB1 receptor [2]; read-out: CB1 Ki) [µM]
22 | CC(C)(C)C(NC(=O)c1nn(Cc2ccc(F)cc2)c2ccccc12)c1nnc(NC(N)=O)o1 (stereo not drawn) [Example 118] |  |  | 0.0238 | 0.0007
23 | CC(C)(C)C(NC(=O)c1nn(Cc2ccc(F)cc2)c2ccccc12)c1nnc(CC(N)=O)o1 (stereo not drawn) [Example 120] |  |  | 0.04 | 0.00305
24 | CC(C)(C)C(NC(=O)c1nn(Cc2ccc(F)cc2)c2ccccc12)c1nnc(C(N)=O)o1 (stereo not drawn) [Example 122] |  |  | 0.0131 | 0.00073
25 | Cc1nnc(CNC(=O)[C@@H](NC(=O)c2nn(Cc3ccc(F)cc3)c3ccccc23)C(C)(C)C)o1 [Example 126] | 0.00255 | 0.00097 |  | 
26 | Cc1nnc(CNC(=O)[C@@H](NC(=O)c2nn(Cc3ccc(C#N)cc3)c3ccccc23)C(C)(C)C)o1 [Example 127] | 0.136 | 0.0328 |  | 
27 | CCOC(=O)c1nnc(CNC(=O)[C@@H](NC(=O)c2nn(Cc3ccc(F)cc3)c3ccccc23)C(C)(C)C)o1 [Example 128] |  |  | 0.00358 | 0.00097
28 | CCOC(=O)c1nnc(CNC(=O)[C@@H](NC(=O)c2nn(Cc3ccc(C#N)cc3)c3ccccc23)C(C)(C)C)o1 [Example 129] |  |  | 0.106 | 0.0126
29 | CC(C)(C)C(NC(=O)c1nn(Cc2ccc(C#N)cc2)c2ccccc12)C(=O)NCc1nnc(C(N)=O)o1 (stereo not drawn) [Example 130] |  |  | 0.0727 | 0.0147
30 | Cc1nc(CNC(=O)C(NC(=O)c2nn(Cc3ccc(F)cc3)c3ccccc23)C(C)(C)C)no1 (stereo not drawn) [Example 131] | 0.0132 | 0.0006 |  | 
31 | CC(C)(C)C(NC(=O)c1nn(Cc2ccc(F)cc2)c2ccccc12)C(=O)N1CCC(O)CC1 (stereo not drawn) [Example 133] | 0.00635 | 0.00055 |  | 
32 | CC(C)(C)C(NC(=O)c1nn(Cc2ccc(C#N)cc2)c2ccccc12)C(=O)N1CCC(O)CC1 (stereo not drawn) [Example 134] | 0.326 | 0.0327 |  | 
33 | CCOC(=O)c1nc(CNC(=O)C(NC(=O)c2nn(Cc3ccc(F)cc3)c3ccccc23)C(C)(C)C)no1 (stereo not drawn) [Example 135] |  |  | 0.0143 | 0.00347
34 | CCOC(=O)c1nc(CNC(=O)C(NC(=O)c2nn(Cc3ccc(C#N)cc3)c3ccccc23)C(C)(C)C)no1 (stereo not drawn) [Example 136] |  |  | 0.115 | 0.0107
35 | CC(C)(C)C(NC(=O)c1nn(Cc2ccc(F)cc2)c2ccccc12)C(=O)NCc1noc(C(N)=O)n1 (stereo not drawn) [Example 137] |  |  | 0.00169 | 0.00069
36 | Cc1noc(CNC(=O)C(NC(=O)c2nn(Cc3ccc(F)cc3)c3ccccc23)C(C)(C)C)n1 (stereo not drawn) [Example 139] | 0.00636 | 0.00082 |  | 
37 | Cc1noc(CNC(=O)C(NC(=O)c2nn(Cc3ccc(C#N)cc3)c3ccccc23)C(C)(C)C)n1 (stereo not drawn) [Example 140] | 0.645 | 0.0393 |  | 
38 | CC(C)(C)C(NC(=O)c1nn(Cc2ccc(F)cc2)c2ccccc12)C(=O)NCCN1CCOCC1 (stereo not drawn) [Example 141] |  |  | 0.0411 | 0.00942
39 | CC(C)(C)C(NC(=O)c1nn(Cc2ccc(F)cc2)c2ccccc12)C(=O)NCCc1nnc(C2CC2)o1 (stereo not drawn) [Example 148] |  |  | 0.0322 | 0.0018
40 | CC(C)(C)C(NC(=O)c1nn(Cc2ccc(F)cc2)c2ccccc12)C(=O)N1CCC(O)C1 (stereo not drawn) [Example 151] | 0.0063 | 0.00163 |  | 
41 | CC(C)(C)C(NC(=O)c1nn(Cc2ccc(F)cc2)c2ccccc12)C(=O)NC1(CO)CC1 (stereo not drawn) [Example 160] | 0.0323 | 0.00145 |  | 
42 | CC(C)(C)C(NC(=O)c1nn(Cc2ccc(C#N)cc2)c2ccc(F)cc12)C(N)=O (stereo not drawn) [Example 163] | 0.18 | 0.00445 |  | 
